Like-named read-outs stand apart in the source and are kept apart here.

The subject of assay [1] is VEGFR2. To be noted: cited from earlier work.
Assay [2] deals with B-Raf. The conditions noted are these: read-out: IC50 for B-Raf; cited from earlier work.
For assay [3], the system named is Virttu cell line panel. The experiment in a line: cells. The format is cell-based. To be noted: Homo sapiens.
Assay [4] deals with Virttu cell panel. Kind of assay: combination with HSV1716, DCP cell death, Chou-Talalay analysis, cell panel. Format: cell-based, human.
Assay [5] deals with HuH7. The format is cell-based, human.
Assay [6] has as its system SKOV3. The format is cell-based, human.
The subject of assay [7] is U87. Format: cell-based, human.
Assay [8] has as its system SPC111. The experiment in a line: combination with HSV1716, Chou-Talalay, SPC111. Format: cell-based, human. The conditions noted are these: for synergy/antagonism with HSV1716 on cell death (Chou-Talalay): SPC111, HSV1716 moi 0.5 and 0.05, 72 hours.
The subject of assay [9] is non-sensitive cells. The conditions noted are these: read-out: IC50 for non-sensitive cells, previously reported; cited from earlier work.
Assay [10] relates to H1666. The conditions noted are these: H1666, wild-type EGFR; read-out: IC50, inhibiting survival of lung cancer cell line; cited from earlier work.
For assay [11], the system named is NCI-H1975. To be noted: NCI-H1975, L858R/T790M EGFR; read-out: IC50, inhibiting survival of lung cancer cell line; cited from earlier work.
Assay [12] relates to H3255. To be noted: H3255, Gefitinib sensitive L858R; cited from earlier work.
In assay [13] the target is VEGFR3 (Homo sapiens, UniProt P35916). To be noted: cited from earlier work.
Chain of VEGFR3 (P35916 25-1363): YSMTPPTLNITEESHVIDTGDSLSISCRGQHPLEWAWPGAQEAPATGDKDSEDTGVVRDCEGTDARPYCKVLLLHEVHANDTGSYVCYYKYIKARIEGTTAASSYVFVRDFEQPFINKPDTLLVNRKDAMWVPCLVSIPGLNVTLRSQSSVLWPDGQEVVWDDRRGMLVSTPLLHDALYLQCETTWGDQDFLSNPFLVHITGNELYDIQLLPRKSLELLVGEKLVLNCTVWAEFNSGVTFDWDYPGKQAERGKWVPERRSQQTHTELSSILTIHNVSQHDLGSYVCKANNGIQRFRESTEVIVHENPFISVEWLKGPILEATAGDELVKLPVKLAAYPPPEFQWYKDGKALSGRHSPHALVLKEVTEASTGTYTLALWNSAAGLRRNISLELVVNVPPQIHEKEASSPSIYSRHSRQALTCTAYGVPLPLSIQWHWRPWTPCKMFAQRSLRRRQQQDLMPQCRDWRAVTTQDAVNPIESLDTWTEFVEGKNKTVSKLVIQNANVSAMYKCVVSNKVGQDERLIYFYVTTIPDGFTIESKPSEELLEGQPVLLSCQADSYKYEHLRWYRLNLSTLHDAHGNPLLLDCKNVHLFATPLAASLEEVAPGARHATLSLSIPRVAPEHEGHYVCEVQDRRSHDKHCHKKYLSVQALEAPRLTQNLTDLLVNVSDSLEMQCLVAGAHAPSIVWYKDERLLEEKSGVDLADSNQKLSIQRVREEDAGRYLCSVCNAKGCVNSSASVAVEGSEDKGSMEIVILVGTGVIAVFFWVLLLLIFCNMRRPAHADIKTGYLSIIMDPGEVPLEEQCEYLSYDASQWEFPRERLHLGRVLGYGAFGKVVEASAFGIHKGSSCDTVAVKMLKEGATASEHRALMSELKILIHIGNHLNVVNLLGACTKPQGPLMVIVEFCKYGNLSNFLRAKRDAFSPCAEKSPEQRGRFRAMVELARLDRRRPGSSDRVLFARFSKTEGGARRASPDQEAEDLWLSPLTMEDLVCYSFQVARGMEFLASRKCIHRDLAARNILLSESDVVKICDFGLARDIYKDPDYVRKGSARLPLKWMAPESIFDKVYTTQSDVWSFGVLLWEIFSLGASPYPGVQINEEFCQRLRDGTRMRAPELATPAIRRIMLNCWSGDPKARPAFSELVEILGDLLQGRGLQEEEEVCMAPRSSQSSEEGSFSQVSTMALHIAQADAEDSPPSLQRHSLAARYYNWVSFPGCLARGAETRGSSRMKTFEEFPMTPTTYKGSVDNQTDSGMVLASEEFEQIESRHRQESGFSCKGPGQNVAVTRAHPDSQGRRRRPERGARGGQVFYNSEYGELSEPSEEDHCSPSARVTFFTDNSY
Assay [14] deals with UVW cells. The experiment in a line: DCP cell death assay, drug alone, UVW. Format: cell-based. The conditions noted are these: Homo sapiens, 72 hrs, read-out: IC50 (DCP leakage).
Assay [15] relates to HSV1716gfp. Kind of assay: GFP expression during infection with HSV1716gfp (drug toxicity to virus). The format is cell-based, herpes simplex virus.
Assay [16] relates to Hep3B. The format is cell-based, human.
Assay [17] relates to HepG2-luc. The format is cell-based, human.
Assay [18] concerns CP70. Format: cell-based, human.
For assay [19], the system named is Ovcar3. Format: cell-based, human.
Assay [20] deals with UVW. The format is cell-based, human.
For assay [21], the system named is One58. Format: cell-based, human.
In assay [22] the test system is HCC cell lines. The format is cell-based, human.
Assay [23] concerns HCC. The conditions noted are these: monotherapy of HCC; cited from earlier work.
For assay [24], the target named is IR (Homo sapiens, UniProt P06213). The conditions noted are these: cited from earlier work.
Chain of IR (P06213 28-1382): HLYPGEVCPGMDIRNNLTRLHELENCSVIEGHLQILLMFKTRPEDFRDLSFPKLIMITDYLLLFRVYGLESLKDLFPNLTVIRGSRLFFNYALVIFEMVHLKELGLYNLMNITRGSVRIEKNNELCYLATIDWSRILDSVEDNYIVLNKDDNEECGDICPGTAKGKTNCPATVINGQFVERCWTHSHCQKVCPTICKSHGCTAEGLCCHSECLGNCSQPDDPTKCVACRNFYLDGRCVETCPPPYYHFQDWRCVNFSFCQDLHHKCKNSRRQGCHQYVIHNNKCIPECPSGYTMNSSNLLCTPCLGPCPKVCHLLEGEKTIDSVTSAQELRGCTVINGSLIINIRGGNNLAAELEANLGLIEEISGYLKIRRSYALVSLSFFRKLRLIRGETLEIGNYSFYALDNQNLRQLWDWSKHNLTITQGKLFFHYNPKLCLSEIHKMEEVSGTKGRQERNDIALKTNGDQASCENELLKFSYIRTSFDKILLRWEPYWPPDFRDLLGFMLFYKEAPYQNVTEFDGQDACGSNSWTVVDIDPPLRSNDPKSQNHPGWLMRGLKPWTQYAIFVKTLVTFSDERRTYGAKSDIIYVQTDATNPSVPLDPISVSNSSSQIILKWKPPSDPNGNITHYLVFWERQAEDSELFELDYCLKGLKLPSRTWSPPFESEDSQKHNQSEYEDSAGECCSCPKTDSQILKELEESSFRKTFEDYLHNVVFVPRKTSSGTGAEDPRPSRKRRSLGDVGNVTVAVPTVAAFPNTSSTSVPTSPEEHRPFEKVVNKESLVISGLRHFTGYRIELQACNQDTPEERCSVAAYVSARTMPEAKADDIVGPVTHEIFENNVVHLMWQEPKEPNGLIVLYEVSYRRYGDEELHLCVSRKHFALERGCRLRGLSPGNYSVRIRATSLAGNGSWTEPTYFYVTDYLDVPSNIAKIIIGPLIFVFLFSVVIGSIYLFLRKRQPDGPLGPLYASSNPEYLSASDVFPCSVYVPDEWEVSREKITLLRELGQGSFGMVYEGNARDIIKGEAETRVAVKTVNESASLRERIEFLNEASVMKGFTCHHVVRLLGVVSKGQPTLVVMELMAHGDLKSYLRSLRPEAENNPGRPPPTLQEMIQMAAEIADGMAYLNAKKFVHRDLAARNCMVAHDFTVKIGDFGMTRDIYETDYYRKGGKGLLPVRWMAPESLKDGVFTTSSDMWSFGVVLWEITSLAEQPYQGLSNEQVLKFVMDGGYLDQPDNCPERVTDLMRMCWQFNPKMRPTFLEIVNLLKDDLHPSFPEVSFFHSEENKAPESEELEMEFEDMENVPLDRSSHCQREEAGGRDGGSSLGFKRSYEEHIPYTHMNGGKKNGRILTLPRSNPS
The test system of assay [25] is Ovcar3. The experiment in a line: DCP cell death assay, drug alone, Ovcar3. The format is cell-based. To be noted: Homo sapiens, OVCAR-3; Ovcar3, 72 hrs; read-out: IC50 (DCP leakage).
In assay [26] the test system is SKOV3. Kind of assay: DCP cell death assay, drug alone, SKOV3. The format is cell-based. To be noted: Homo sapiens, SK-OV-3; SKOV3, 72 hrs; read-out: IC50 (DCP leakage).
Assay [27] deals with SPC-111. Kind of assay: DCP cell death assay, drug alone, SPC-111. The format is cell-based. The conditions noted are these: Homo sapiens; SPC-111, 72 hrs; read-out: IC50 (DCP leakage).
For assay [28], the system named is RCC cell lines. To be noted: read-out: IC50 in RCC cell lines, reported; cited from earlier work.
In assay [29] the test system is breast carcinoma and melanoma cell lines. The conditions noted are these: read-out: IC50 in breast carcinoma and melanoma cell lines, reported; cited from earlier work.
Assay [30] addresses Flt3^D835Y (Homo sapiens, UniProt P36888, D835Y). The conditions noted are these: cited from earlier work.

With `Cn1c(Nc2ccc(C(F)(F)F)cc2)nc2cc(Oc3ccnc(-c4ncc(C(F)(F)F)[nH]4)c3)ccc21` [RAF265, 1-methyl-5-(2-(5-(trifluoromethyl)-1H-imidazol-2-yl)pyridin-4-yloxy)-N-(4-(trifluoromethyl)phenyl)-1H-benzo[d]imidazol-2-amine], the EC50 – broadly, the concentration at which the effect is half-maximal – in assay [1] was […]. Further, the IC50 (commonly the point on the concentration scale where inhibition reaches its midpoint) in assay [2] was […].
Take `C#Cc1cccc(Nc2ncnc3cc(OCCOC)c(OCCOC)cc23)c1` [Erlotinib, N-(3-ethynylphenyl)-6,7-bis(2-methoxyethoxy)quinazolin-4-amine]: the IC50 in [3] (A-431, all other cell lines (other than A431), 72 hours, read-out: IC50 (DCP leakage), range) was 1000 to 25000 nM; in assay [9], above 10000 nM. Also, the “overall synergy/antagonism with HSV1716 on cell death” value in [4] is on record as “mostly antagonistic”. Moreover, the “number of cell lines tested in which antagonism was detected” value in assay [4] (drug + HSV1716 moi 0.5 and 0.05, cell death by DCP after 72 hours) was 9 out of 10. The “number of synergistic combinations out of 8” value is on record as 1/8 in assay [5]; 1/8 in assay [6]; 1/8 in [8] (SPC111, synergy at moi 0.05). The “synergy/antagonism with HSV1716 on cell death (Chou-Talalay)” value (shortened to “synergy/antagonism … (Chou-Talalay)”) in [5] is on record as “limited synergy”; in assay [6], “limited synergy”; in assay [7], “synergistic”; in assay [8] it was “limited synergy”.
`CN(C)CC=CC(=O)Nc1cc2c(Nc3ccc(F)c(Cl)c3)ncnc2cc1O[C@H]1CCOC1` [Afantinib, N-[4-[(3-Chloro-4-fluorophenyl)amino]-7-[[(3S)-tetrahydro-3-furanyl]oxy]-6-quinazolinyl]-4(dimethylamino)-2-butenamide]: the IC50 in assay [10] and in assay [11] was below 100 nM in each case. Further, the “IC50, inhibiting survival of lung cancer cell line” value in assay [12] is “subnanomolar”.
Regarding `CCn1c(N)c(C(=O)NC)c(=O)c2ccc(C#C[C@@](C)(O)COC)nc21` [SAR131675, (R)-2-amino-1-ethyl-7-(3-hydroxy-4-methoxy-3-methylbut-1-ynyl)-N-methyl-4-oxo-1,4-dihydro-1,8-naphthyridine-3-carboxamide], the IC50 in [13] was 20 nM.
Take `CNC(=O)c1cc(Oc2ccc(NC(=O)Nc3ccc(Cl)c(C(F)(F)F)c3)cc2)ccn1` [Sorafenib, 4-[4-[[4-chloro-3-(trifluoromethyl)phenyl]carbamoylamino]phenoxy]-N-methyl-pyridine-2-carboxamide]: the IC50 is 1000 to 10000 nM in [3] (most/all cell lines of panel, 72 hrs, read-out: IC50 (DCP leakage), range over cell lines) and 100 nM in [14]. The “effect on GFP expression during HSV1716gfp infection” value (“effect” for short) in assay [15] (CP70, moi 0.05, 72 hrs) is given as “more marked inhibitory effect”; in [15] (Hep3B, moi 0.05, 72 hrs) it was “more marked inhibitory effect”; in [15] (HuH7, moi 0.05, 72 hrs), “small inhibitory effect at the 2.5 μM Sorafenib concentration”; in [15] (One58, moi 0.05, 72 hrs), “more marked inhibitory effect”; in assay [15] (Ovcar3, moi 0.05, 72 hrs), “more marked inhibitory effect”; in assay [15] (SKOV3, moi 0.05, 72 hrs), “no effect on GFP expression”. The “effect” value is “more marked inhibitory effect” in [15] (SPC111, moi 0.05, 72 hrs); “small inhibitory effect at the 2.5 μM Sorafenib concentration” in assay [15] (U87, moi 0.05, 72 hrs); “no effect on GFP expression” in assay [15] (UVW, moi 0.05, 72 hrs); “little effect on GFP expression” in assay [15] (all cell lines tested, moi 0.5, 72 hrs). Further, the “number of cell lines tested with clear synergy signals / synergism with HSV1716” value in assay [4] is listed as 8/10. Moreover, the “synergy/antagonism … (Chou-Talalay)” value in assay [16] is given as “synergistically”; in [5], “synergistically”; in assay [17] it was “synergistically”; in [18] it was “synergies occurred”; in [19], “synergies occurred”; in assay [20] it was “no synergies”. The “synergy/antagonism … (Chou-Talalay)” value in [21] is listed as “no synergies”. The “synergy with HSV1716 on cell death (Chou-Talalay)” value in assay [22] is “strongly synergistic”. Besides, the “prolongation of median survival and time to progression” value in assay [23] is around 3 months. Also, the “reduction of the risk of death during year 1” value in assay [23] is given as 31%.
Take `CC(C)(C)c1cc(C=C(C#N)C#N)cc(Br)c1O` [AG-1024, 2-(3-bromo-5-tert-butyl-4-hydroxybenzylidene)malononitrile]: the IC50 in assay [24] was 100 nM.
With `Cc1ccc(Nc2nccc(N(C)c3ccc4c(C)n(C)nc4c3)n2)cc1S(N)(=O)=O` [Pazopanib, 5-[[4-[(2,3-Dimethyl-2H-indazol-6-yl)methylamino]-2-pyrimidinyl]amino]-2-methylbenzolsulfonamide], the IC50 was 3000 to 18000 nM in assay [3] (Hep3B, HuH7, HepG2-luc, CP70, U87 and One58, 72 hrs, read-out: IC50 (DCP leakage), range); 300 nM in [14]; 40000 nM in assay [25]; 40000 nM in assay [26]; 40000 nM in assay [27]; 30000 to 60000 nM in [28]. For the same compound, the IC50 in assay [29] is 1000 to 10000 nM. Moreover, the “effect” value is “stimulated GFP expression” in [15] (CP70, moi 0.5 and 0.05, 72 hrs); “little effect on GFP expression” in [15] (HepG2-luc, both moi (0.5 and 0.05), 72 hrs); “more potent inhibitory effect” in assay [15] (HuH7, moi 0.05, 72 hrs); “inhibited GFP expression” in [15] (HuH7, moi 0.5, 72 hrs); “more potent inhibitory effect” in assay [15] (One58, moi 0.05, 72 hrs); “inhibited GFP expression” in assay [15] (One58, moi 0.5, 72 hrs). The “effect” value in assay [15] (Ovcar3, moi 0.05, 72 hrs) is on record as “more potent inhibitory effect”; in [15] (Ovcar3, moi 0.5, 72 hrs), “inhibited GFP expression”; in [15] (SKOV3, moi 0.05, 72 hrs), “no inhibitory effects”; in assay [15] (SKOV3, moi 0.5, 72 hrs), “inhibited GFP expression”; in assay [15] (UVW, moi 0.05, 72 hrs), “no inhibitory effects”; in assay [15] (UVW, moi 0.5, 72 hrs) it was “inhibited GFP expression”. The “number of cell lines tested with clear synergy signals / synergism with HSV1716” value in assay [4] was 7/9. In addition, the “synergy/antagonism … (Chou-Talalay)” value in [5] is recorded as “limited synergy”; in assay [18], “synergistic”; in assay [21], “synergistic”; in assay [8] it was “limited synergy”.
Turning to `S=C(NCc1ccc2c(c1)OCO2)N1CCN(c2ncnc3c2oc2ccccc23)CC1` [Amuvatinib, N-(benzo[d][1,3]dioxol-5-ylmethyl)-4-(benzofuro[3,2-d]pyrimidin-4-yl)piperazine-1-carbothioamide], in [30], the IC50 is 81 nM.

The values above are taken from US20150374767A1, “Treatment of Cancer” (priority 2013, published 2015).
